Reference: paper PMC7015794 (Biochemistry, 2020)

Experiments:
[1] = biological target: T1, (1,3)-β-D-glucan synthase (GS), catalytic subunit Fks1p (Saccharomyces cerevisiae, UniProt P38631); experiment: GS activity assay; format: biochemical
[2] = biological target: T1, (1,3)-β-D-glucan synthase (GS), catalytic subunit Fks1p; experiment: GS activity assay with […] UDP-Glc; format: biochemical

T1 sequence (P38631 whole entry): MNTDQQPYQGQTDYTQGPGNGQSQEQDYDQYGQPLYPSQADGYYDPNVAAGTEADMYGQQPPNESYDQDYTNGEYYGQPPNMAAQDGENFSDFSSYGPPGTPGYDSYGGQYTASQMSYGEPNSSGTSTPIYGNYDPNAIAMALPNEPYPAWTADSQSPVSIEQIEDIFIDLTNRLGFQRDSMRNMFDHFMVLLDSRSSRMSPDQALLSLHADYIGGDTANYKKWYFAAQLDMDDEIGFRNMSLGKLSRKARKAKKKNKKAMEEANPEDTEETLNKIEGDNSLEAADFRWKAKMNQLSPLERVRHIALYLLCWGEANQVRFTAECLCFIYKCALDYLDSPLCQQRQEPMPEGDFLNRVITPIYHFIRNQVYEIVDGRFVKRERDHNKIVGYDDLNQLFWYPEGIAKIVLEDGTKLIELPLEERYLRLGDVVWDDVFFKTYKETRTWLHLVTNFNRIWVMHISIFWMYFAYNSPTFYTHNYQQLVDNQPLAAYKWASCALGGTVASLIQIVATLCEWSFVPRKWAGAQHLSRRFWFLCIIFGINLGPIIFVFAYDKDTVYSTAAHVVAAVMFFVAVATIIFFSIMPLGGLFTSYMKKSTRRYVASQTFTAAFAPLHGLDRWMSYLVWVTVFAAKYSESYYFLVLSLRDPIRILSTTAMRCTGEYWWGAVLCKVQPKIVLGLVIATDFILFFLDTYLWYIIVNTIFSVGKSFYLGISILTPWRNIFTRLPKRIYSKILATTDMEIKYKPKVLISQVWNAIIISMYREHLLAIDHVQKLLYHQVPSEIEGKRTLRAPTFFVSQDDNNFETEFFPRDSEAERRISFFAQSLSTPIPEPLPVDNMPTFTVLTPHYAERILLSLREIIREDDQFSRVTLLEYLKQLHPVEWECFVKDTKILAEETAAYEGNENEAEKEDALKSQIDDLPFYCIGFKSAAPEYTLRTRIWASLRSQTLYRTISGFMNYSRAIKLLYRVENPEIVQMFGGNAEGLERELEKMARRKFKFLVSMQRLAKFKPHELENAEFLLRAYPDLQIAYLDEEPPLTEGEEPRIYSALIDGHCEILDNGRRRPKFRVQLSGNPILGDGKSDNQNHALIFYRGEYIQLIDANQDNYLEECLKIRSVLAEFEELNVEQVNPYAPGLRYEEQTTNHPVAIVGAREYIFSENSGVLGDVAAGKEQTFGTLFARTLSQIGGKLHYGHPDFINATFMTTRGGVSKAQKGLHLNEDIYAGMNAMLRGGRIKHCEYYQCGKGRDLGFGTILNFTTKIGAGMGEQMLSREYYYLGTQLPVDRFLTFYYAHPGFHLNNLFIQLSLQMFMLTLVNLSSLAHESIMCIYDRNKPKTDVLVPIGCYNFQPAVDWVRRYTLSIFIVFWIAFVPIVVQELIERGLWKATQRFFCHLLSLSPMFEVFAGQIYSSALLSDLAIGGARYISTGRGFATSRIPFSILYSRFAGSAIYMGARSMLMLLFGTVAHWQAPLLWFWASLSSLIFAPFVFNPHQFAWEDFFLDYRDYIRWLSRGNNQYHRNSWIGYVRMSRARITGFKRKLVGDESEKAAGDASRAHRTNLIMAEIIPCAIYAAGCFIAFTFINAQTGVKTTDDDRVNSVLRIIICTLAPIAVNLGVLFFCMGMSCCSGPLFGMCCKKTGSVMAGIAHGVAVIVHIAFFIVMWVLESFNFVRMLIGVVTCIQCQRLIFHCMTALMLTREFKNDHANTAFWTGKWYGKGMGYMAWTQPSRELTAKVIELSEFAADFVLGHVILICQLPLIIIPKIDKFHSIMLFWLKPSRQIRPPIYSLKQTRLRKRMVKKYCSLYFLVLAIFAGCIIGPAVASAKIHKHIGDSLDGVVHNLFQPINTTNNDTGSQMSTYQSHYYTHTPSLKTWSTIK
T1 sequence (P06780 2-206, further chain): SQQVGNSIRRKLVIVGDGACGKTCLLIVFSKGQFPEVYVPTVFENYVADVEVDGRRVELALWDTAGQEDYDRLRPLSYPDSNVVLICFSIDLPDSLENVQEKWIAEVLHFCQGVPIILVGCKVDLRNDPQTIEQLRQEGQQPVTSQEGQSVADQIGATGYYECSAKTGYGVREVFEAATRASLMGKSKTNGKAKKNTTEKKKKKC

| SMILES | IC50 [1] | IC50 [2] |
| --- | --- | --- |
| CC[C@H](C)C[C@H](C)CCCCCCCCC(=O)N[C@H]1C[C@@H](O)[C@@H](NCCN)NC(=O)[C@@H]2[C@@H](O)CCN2C(=O)[C@H]([C@H](O)CCN)NC(=O)[C@H]([C@H](O)[C@@H](O)c2ccc(O)cc2)NC(=O)[C@@H]2C[C@@H](O)CN2C(=O)[C@H]([C@@H](C)O)NC1=O [CFN, caspofungin] | 0.238 µM |  |
| O=c1ccn([C@@H]2O[C@H](COP(=O)(O)OP(=O)(O)O[C@H]3O[C@H](CO)[C@@H](O)[C@H](F)[C@H]3O)[C@@H](O)[C@H]2O)c(=O)[nH]1 [UDP-3’-F-Glc] |  | 5300 ± 1000 µM |
| O=c1ccn([C@@H]2O[C@H](COP(=O)(O)OP(=O)(O)O[C@H]3O[C@H](CO)[C@@H](O)C[C@H]3O)[C@@H](O)[C@H]2O)c(=O)[nH]1 [UDP-3’-dGlc] |  | 2400 ± 200 µM |
